Results as given in US7795290B2 (Genentech, Inc., priority 2004, dated 2010).

Target: T1, AKT1 (Homo sapiens, UniProt P31749)
T1 construct: purchased Upstate 14-276
Assay: HTS ATP-utilizing enzyme assay, off-chip mobility-shift (Caliper HTS 250)
Format: biochemical
Conditions: kinase named = inhibitory activity/selectivity; test compound 10 μM; active = greater than three-sigma from mean
Method in brief: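 AKT1 activity was measured by off-chip mobility shift (Caliper HTS 250) as the ratio of peptide substrate to phosphorylated product. Test compound was at 10 μM, with 2.5 h incubation at 20–22° C. EDTA wells served as 100% control and DMSO wells as 0%. Hits were called at three-sigma limits.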

T1 sequence (P31749 whole entry): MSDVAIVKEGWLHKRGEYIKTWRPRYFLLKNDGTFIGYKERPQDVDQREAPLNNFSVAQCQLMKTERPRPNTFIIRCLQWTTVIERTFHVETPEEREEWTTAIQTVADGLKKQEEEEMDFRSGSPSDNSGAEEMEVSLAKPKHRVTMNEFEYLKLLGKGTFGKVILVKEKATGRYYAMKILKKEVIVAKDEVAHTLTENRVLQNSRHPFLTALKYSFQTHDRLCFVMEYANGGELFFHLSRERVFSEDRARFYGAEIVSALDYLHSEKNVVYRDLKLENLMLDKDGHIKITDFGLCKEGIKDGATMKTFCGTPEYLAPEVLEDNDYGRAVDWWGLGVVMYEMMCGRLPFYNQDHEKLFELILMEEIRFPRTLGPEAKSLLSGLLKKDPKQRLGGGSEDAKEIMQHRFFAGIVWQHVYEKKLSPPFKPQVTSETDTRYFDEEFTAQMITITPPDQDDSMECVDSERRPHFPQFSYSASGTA

Activity, AKT1:
CC(=O)NC1CCN(C(=O)CCCN(C(=O)c2cccs2)c2nc(-c3cc4ccccc4o3)cs2)C1 (centres unmarked) [N-(4-(3-acetamidopyrrolidin-1-yl)-4-oxobutyl)-N-(4-(benzofuran-2-yl)thiazol-2-yl)thiophene-2-carboxamide]
O=C(c1cccs1)N(CCCN1CCOCC1)c1nc(-c2cccc(Br)c2)cs1 [N-(4-(3-bromophenyl)thiazol-2-yl)-N-(3-morpholinopropyl)thiophene-2-carboxamide]
O=C(c1cccs1)N(CCCN1CCOCC1)c1nc(-c2cccc(Cl)c2)cs1 [N-(4-(3-chlorophenyl)thiazol-2-yl)-N-(3-morpholinopropyl)thiophene-2-carboxamide]
O=C(c1cccs1)N(CCCN1CCOCC1)c1nc(-c2cccc(F)c2)cs1 [N-(4-(3-fluorophenyl)thiazol-2-yl)-N-(3-morpholinopropyl)thiophene-2-carboxamide]
COc1cccc(-c2csc(N(CCCN3CCOCC3)C(=O)c3cccs3)n2)c1 [N-(4-(3-methoxyphenyl)thiazol-2-yl)-N-(3-morpholinopropyl)thiophene-2-carboxamide]
Cc1c(-c2csc(N(CCCN3CCOCC3)C(=O)c3cccs3)n2)sc2ccccc12 [N-(4-(3-methylbenzo[b]thiophen-2-yl)thiazol-2-yl)-N-(3-morpholinopropyl)thiophene-2-carboxamide]
CN(C)CCOc1ccc(-c2csc(N(CCCN3CCOCC3)C(=O)c3cccs3)n2)cc1 [N-(4-(4-(2-(dimethylamino)ethoxy)phenyl)thiazol-2-yl)-N-(3-morpholinopropyl)thiophene-2-carboxamide]
CN(C)CCNC(=O)c1ccc(-c2csc(N(CCCN3CCOCC3)C(=O)c3cccs3)n2)cc1 [N-(4-(4-(2-(dimethylamino)ethylcarbamoyl)phenyl)thiazol-2-yl)-N-(3-morpholinopropyl)thiophene-2-carboxamide]
O=C(NCCO)c1ccc(-c2csc(N(CCCN3CCOCC3)C(=O)c3cccs3)n2)cc1 [N-(4-(4-(2-hydroxyethylcarbamoyl)phenyl)thiazol-2-yl)-N-(3-morpholinopropyl)thiophene-2-carboxamide]
O=C(NCCN1CCOCC1)c1ccc(-c2csc(N(CCCN3CCOCC3)C(=O)c3cccs3)n2)cc1 [N-(4-(4-(2-morpholinoethylcarbamoyl)phenyl)thiazol-2-yl)-N-(3-morpholinopropyl)thiophene-2-carboxamide]
CN(C)CCCOc1ccc(-c2csc(N(CCCN3CCOCC3)C(=O)c3cccs3)n2)cc1 [N-(4-(4-(3-(dimethylamino)propoxy)phenyl)thiazol-2-yl)-N-(3-morpholinopropyl)thiophene-2-carboxamide]
CN(C)CCCNC(=O)c1ccc(-c2csc(N(CCCN3CCOCC3)C(=O)c3cccs3)n2)cc1 [N-(4-(4-(3-(dimethylamino)propylcarbamoyl)phenyl)thiazol-2-yl)-N-(3-morpholinopropyl)thiophene-2-carboxamide]
O=C(NCCCO)c1ccc(-c2csc(N(CCCN3CCOCC3)C(=O)c3cccs3)n2)cc1 [N-(4-(4-(3-hydroxypropylcarbamoyl)phenyl)thiazol-2-yl)-N-(3-morpholinopropyl)thiophene-2-carboxamide]
CN1CCN(C(=O)c2ccc(-c3csc(N(CCCN4CCOCC4)C(=O)c4cccs4)n3)cc2)CC1 [N-(4-(4-(4-methylpiperazine-1-carbonyl)phenyl)thiazol-2-yl)-N-(3-morpholinopropyl)thiophene-2-carboxamide]
O=C(c1cccs1)N(CCCN1CCOCC1)c1nc(-c2ccc(OC(F)F)cc2)cs1 [N-(4-(4-(difluoromethoxy)phenyl)thiazol-2-yl)-N-(3-morpholinopropyl)thiophene-2-carboxamide]
CN(C)C(=O)c1ccc(-c2csc(N(CCCN3CCOCC3)C(=O)c3cccs3)n2)cc1 [N-(4-(4-(dimethylcarbamoyl)phenyl)thiazol-2-yl)-N-(3-morpholinopropyl)thiophene-2-carboxamide]
CNC(=O)c1ccc(-c2csc(N(CCCN3CCOCC3)C(=O)c3cccs3)n2)cc1 [N-(4-(4-(methylcarbamoyl)phenyl)thiazol-2-yl)-N-(3-morpholinopropyl)thiophene-2-carboxamide]
CS(=O)(=O)c1ccc(-c2csc(N(CCCN3CCOCC3)C(=O)c3cccs3)n2)cc1 [N-(4-(4-(methylsulfonyl)phenyl)thiazol-2-yl)-N-(3-morpholinopropyl)thiophene-2-carboxamide]
O=C(c1ccc(-c2csc(N(CCCN3CCOCC3)C(=O)c3cccs3)n2)cc1)N1CCOCC1 [N-(4-(4-(morpholine-4-carbonyl)phenyl)thiazol-2-yl)-N-(3-morpholinopropyl)thiophene-2-carboxamide]
NC(=O)c1ccc(-c2csc(N(CCCN3CCOCC3)C(=O)c3cccs3)n2)cc1 [N-(4-(4-carbamoylphenyl)thiazol-2-yl)-N-(3-morpholinopropyl)thiophene-2-carboxamide]
Cc1cc(-c2csc(N(CCCN3CCOCC3)C(=O)c3cccs3)n2)ccc1Cl [N-(4-(4-chloro-3-methylphenyl)thiazol-2-yl)-N-(3-morpholinopropyl)thiophene-2-carboxamide]
O=C(c1cccs1)N(CCCN1CCOCC1)c1nc(-c2ccc(Cl)c([N+](=O)[O-])c2)cs1 [N-(4-(4-chloro-3-nitrophenyl)thiazol-2-yl)-N-(3-morpholinopropyl)thiophene-2-carboxamide]
O=C(c1cccs1)N(CCCN1CCOCC1)c1nc(-c2ccc(Cl)cc2)cs1 [N-(4-(4-chlorophenyl)thiazol-2-yl)-N-(3-morpholinopropyl)thiophene-2-carboxamide]
N#Cc1ccc(-c2csc(N(CCCN3CCOCC3)C(=O)c3cccs3)n2)cc1 [N-(4-(4-cyanophenyl)thiazol-2-yl)-N-(3-morpholinopropyl)thiophene-2-carboxamide]
O=C(c1cccs1)N(CCCN1CCOCC1)c1nc(-c2ccc(F)cc2)cs1 [N-(4-(4-fluorophenyl)thiazol-2-yl)-N-(3-morpholinopropyl)thiophene-2-carboxamide]
COc1ccc(-c2csc(N(CCCN3CCOCC3)C(=O)c3nccn3C)n2)cc1 [N-(4-(4-methoxyphenyl)thiazol-2-yl)-1-methyl-N-(3-morpholinopropyl)-1H-imidazole-2-carboxamide]
COc1ccc(-c2csc(N(CCCN3CCOCC3)C(=O)c3cccn3C)n2)cc1 [N-(4-(4-methoxyphenyl)thiazol-2-yl)-1-methyl-N-(3-morpholinopropyl)-1H-pyrrole-2-carboxamide]
COc1ccc(-c2csc(N(CCCN3CCOCC3)C(=O)c3cccc(C)c3)n2)cc1 [N-(4-(4-methoxyphenyl)thiazol-2-yl)-3-methyl-N-(3-morpholinopropyl)benzamide]
COc1ccc(-c2csc(N(CCCN3CCOCC3)C(=O)c3occc3C)n2)cc1 [N-(4-(4-methoxyphenyl)thiazol-2-yl)-3-methyl-N-(3-morpholinopropyl)furan-2-carboxamide]
COc1ccc(-c2csc(N(CCCN3CCOCC3)C(=O)c3sccc3C)n2)cc1 [N-(4-(4-methoxyphenyl)thiazol-2-yl)-3-methyl-N-(3-morpholinopropyl)thiophene-2-carboxamide]
COc1ccc(-c2csc(N(CCCN3CCCCC3)C(=O)c3cccs3)n2)cc1 [N-(4-(4-methoxyphenyl)thiazol-2-yl)-N-(3-(piperidin-1-yl)propyl)thiophene-2-carboxamide]
COc1ccc(-c2csc(N(CCCN3CCCC3)C(=O)c3ccccc3)n2)cc1 [N-(4-(4-methoxyphenyl)thiazol-2-yl)-N-(3-(pyrrolidin-1-yl)propyl)benzamide]
COc1ccc(-c2csc(N(CCCN3CCCC3)C(=O)c3ccco3)n2)cc1 [N-(4-(4-methoxyphenyl)thiazol-2-yl)-N-(3-(pyrrolidin-1-yl)propyl)furan-2-carboxamide]
COc1ccc(-c2csc(N(CCCN3CCCC3)C(=O)c3cccs3)n2)cc1 [N-(4-(4-methoxyphenyl)thiazol-2-yl)-N-(3-(pyrrolidin-1-yl)propyl)thiophene-2-carboxamide]
COc1ccc(-c2csc(N(CCCN3CCOCC3)C(=O)c3ccccc3)n2)cc1 [N-(4-(4-methoxyphenyl)thiazol-2-yl)-N-(3-morpholinopropyl)benzamide]
COc1ccc(-c2csc(N(CCCN3CCOCC3)C(=O)C3CCCCC3)n2)cc1 [N-(4-(4-methoxyphenyl)thiazol-2-yl)-N-(3-morpholinopropyl)cyclohexanecarboxamide]
COc1ccc(-c2csc(N(CCCN3CCOCC3)C(=O)C3=CCCC3)n2)cc1 [N-(4-(4-methoxyphenyl)thiazol-2-yl)-N-(3-morpholinopropyl)cyclopent-1-enecarboxamide]
COc1ccc(-c2csc(N(CCCN3CCOCC3)C(=O)c3cccs3)n2)cc1 [N-(4-(4-methoxyphenyl)thiazol-2-yl)-N-(3-morpholinopropyl)thiophene-2-carboxamide]
